Data as given in patent US12378328B2, “Biohybrid peptidoglycan oligomers” (Nanyang Technological University, priority 2019, dated 2025).

Columns and labels:
E. faecalis OG1RF = test: TIRF microscopy of wild type and L-form bacteria; format: cell-based; conditions: 30 min, 37° C.; for fluorescence localisation, L-form cells: L-form E. faecalis OG1RF
Source text: L-form bacteria and fluorescence microscopy were deployed to further study the interaction between PGOs and bacterial cell walls. L-form bacteria are deficient in cell wall components (referring to substrates forming the cell wall) or cell wall fragments (referring to the residues formed after cell autolysis) on their surface. BOCILLIN™ FL (Boc-FL), a fluorescent penicillin-derivative, was used to compare the localisation of penicillin-derivatives to that of PGOs.
The localisation of PGOs-rhodamine was also compared to the membrane dye Polymyxin B-BODIPY FL (Polymyxin B). […] In comparison, the PGOs localised in discrete punctae on the L-form cell surfaces. […] Thus, it is concluded that PGOs' localisation patterns within bacterial cell walls strongly resemble penicillin-derivatives (FIG. 9, top row).
L-forms were generated using DM3 agar by modified methods from reported protocol (Molec. Gen. Genet., 1979, 168, 111-115). DM3 medium consists of 1.2 wt % agar, 0.5 wt % Tryptone, 0.5 wt % yeast extract, 1 M Succinate (pH 7.3), 3.5 wt % K2HPO4 and 1.5 wt % KH2PO4, 20 wt % Glucose, 1 M MgCl2 and 2 wt % BSA, with the balance being water. Parental strain E. faecalis OG1RF was grown overnight at 37° C. in DM3 broth. 100 μL of an overnight culture was directly plated on DM3 agar plates supplemented with 200 μg/ml penicillin G. The plates were incubated at 37° C. Small fried egg-like shaped colonies appeared after 5 days. The colonies were restreaked on DM3 agar with 200 μg/ml penicillin G for a few times to get pure colonies, and serial passaging (ten times) of pure colonies in DM3 agar with decreasing penicillin G concentrations to generate stable L-forms. The stable L-forms were stored at −80° C. in 20% glycerol.
Fluorescence microscopy was performed on Nikon TIRF microscope (Nikon instruments, NY, USA). BODIPY FL and sulforhodamine B were excited at 488 and 560 nm and emitted at 512 and 580 nm respectively. […]

[1] = tested on: S. aureus and E. faecalis; test: STED super-resolution microscopy of cell walls that incorporated PGOs; format: cell-based
Protocol: To prepare samples for super resolution STED microscopy, overnight broth cultures were grown in 5 ml of fresh culture broth (1:100 dilution) to prepare logarithmic phase cultures after incubation at 37° C. for 4 hours in a shaking incubator (225 rpm). Then, bacteria cells were pelleted by centrifugation at 1,500×g for 5 min, suspended in culture media (MHB and BHI) at a concentration of 10^8 CFU ml^−1 and incubated for 1 h in the dark in the presence of 100 μg/ml of rhodamine-labeled derivative of 1 at 37° C. with agitation (225 rpm). […] Cells were fixed for 1 h at 37° C. in a shaking incubator (225 rpm), washed three times in PBS and applied to a sterile glass bottom collagen coated dish (MatTek Corporation).
STED super resolution microscopy was performed on a Leica TCS SP8 STED-3× microscope (Leica Microsystems, Wetzlar, Germany) at SingHealth Advanced Biomaging Core. 479 nm and 556 nm lasers were used for fluorescence excitation, while 660 nm STED laser was used for depletion. In order to achieve maximum lateral resolution, all images were acquired in 2D STED mode. Further image processing required deconvolution, which was done using Huygens Professional software (Scientific Volume Imaging, Hilversum, Netherlands).
To characterize the bacterial PG cell walls that incorporated PGOs, the microscope images obtained from Example 5 were further analysed.

| Compound | fluorescence localisation, L-form cells (E. faecalis OG1RF) | fluorescence localisation, wild type cells (E. faecalis OG1RF; wild type E. faecalis OG1RF) | localisation of signal on the bacterial cell [1] |
| --- | --- | --- | --- |
| Cc1cc(C)n2c1C=C1C=CC(CCC(=O)Nc3ccc(OCC(=O)N[C@@H]4C(=O)N5[C@@H]4SC(C)(C)[C@@H]5C(=O)[O-])cc3)=[N+]1[B-]2(F)F.[Na+] [Boc-FL] | only a few distinct fluorescent punctae | intense fluorescence at the septum region and also the adjacent cell surface |  |
| CCCCN(CCCC)c1ccc(/C=C/c2cc[n+](CCC[N+](C)(C)CCCN)cc2)cc1.Cl.[Cl-].[Cl-] [FM 1-43fx] |  |  | adsorbed directly onto the bacterial cell surface |
| Polymyxin B | Strong uniform membranous staining |  |  |
